Laboratory results published in PMC6138237, “Machine intelligence decrypts β-lapachone as an allosteric 5-lipoxygenase inhibitor” (Chemical Science, 2018).
Where two headings read alike, the source gives them in different places.

What was measured:
[1] = biological target: T1, 12-LO (Homo sapiens, UniProt P18054); assay: 12-LO inhibition in intact human neutrophils
T1 sequence (P18054 1-663): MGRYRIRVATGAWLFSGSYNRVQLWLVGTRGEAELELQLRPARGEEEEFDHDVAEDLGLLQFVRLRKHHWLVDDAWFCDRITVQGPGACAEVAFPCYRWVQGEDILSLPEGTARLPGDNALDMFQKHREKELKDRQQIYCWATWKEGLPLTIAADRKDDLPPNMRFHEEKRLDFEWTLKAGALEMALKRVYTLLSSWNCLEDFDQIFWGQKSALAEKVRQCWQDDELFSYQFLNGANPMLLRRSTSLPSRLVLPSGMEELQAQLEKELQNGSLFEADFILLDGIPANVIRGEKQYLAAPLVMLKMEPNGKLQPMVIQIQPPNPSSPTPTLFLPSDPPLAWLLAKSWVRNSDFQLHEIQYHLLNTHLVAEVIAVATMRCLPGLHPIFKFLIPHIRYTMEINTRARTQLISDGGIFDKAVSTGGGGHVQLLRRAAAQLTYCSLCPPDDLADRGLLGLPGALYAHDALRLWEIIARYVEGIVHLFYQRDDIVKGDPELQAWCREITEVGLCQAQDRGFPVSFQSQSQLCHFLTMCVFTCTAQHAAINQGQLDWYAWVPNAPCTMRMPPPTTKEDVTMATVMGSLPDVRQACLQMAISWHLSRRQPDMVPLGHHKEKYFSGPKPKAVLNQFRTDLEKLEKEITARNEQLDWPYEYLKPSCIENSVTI

[2] = biological target: T2, IKKα (Homo sapiens, UniProt O15111); assay: ExpresS Diversity Kinase Profile, Cerep (LANCE): IKKα; assay type: biochemical
T2 sequence (O15111 1-745): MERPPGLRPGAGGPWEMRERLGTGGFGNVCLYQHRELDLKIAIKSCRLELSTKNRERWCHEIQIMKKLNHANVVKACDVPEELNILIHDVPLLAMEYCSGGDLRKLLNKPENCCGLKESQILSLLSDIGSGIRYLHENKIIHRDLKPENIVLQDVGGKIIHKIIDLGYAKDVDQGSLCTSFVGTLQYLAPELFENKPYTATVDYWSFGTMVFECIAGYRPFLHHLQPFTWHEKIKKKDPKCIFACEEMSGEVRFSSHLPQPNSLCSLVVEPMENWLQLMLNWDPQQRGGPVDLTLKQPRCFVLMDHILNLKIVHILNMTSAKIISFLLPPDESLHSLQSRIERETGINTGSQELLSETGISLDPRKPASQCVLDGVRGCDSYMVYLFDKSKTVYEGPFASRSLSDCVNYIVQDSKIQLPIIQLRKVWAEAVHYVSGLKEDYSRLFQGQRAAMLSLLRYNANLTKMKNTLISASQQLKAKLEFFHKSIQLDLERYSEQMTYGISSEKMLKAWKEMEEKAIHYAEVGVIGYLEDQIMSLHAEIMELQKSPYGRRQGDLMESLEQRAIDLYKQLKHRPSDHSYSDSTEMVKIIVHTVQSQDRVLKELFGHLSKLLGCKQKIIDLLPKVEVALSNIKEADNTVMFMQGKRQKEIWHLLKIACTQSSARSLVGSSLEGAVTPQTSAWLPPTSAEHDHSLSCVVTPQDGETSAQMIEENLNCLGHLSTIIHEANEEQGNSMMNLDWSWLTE

[3] = biological target: EGFR (Homo sapiens, UniProt P00533); assay: ExpresS Diversity Kinase Profile, Cerep (LANCE): EGFR; assay type: biochemical
[4] = biological target: EP4 (Homo sapiens, UniProt P35408); assay: EP4 functional agonist assay, Cerep (cAMP, HTRF)
[5] = biological target: PLK1 (Homo sapiens, UniProt P53350); assay: ExpresS Diversity Kinase Profile, Cerep (LANCE): PLK1; assay type: biochemical
[6] = biological target: MNK2 (Homo sapiens, UniProt Q9HBH9); assay: ExpresS Diversity Kinase Profile, Cerep (LANCE): MNK2; assay type: biochemical
[7] = biological target: T3, 5-LO (Homo sapiens, UniProt P09917); assay type: biochemical
T3 sequence (P09917 1-674): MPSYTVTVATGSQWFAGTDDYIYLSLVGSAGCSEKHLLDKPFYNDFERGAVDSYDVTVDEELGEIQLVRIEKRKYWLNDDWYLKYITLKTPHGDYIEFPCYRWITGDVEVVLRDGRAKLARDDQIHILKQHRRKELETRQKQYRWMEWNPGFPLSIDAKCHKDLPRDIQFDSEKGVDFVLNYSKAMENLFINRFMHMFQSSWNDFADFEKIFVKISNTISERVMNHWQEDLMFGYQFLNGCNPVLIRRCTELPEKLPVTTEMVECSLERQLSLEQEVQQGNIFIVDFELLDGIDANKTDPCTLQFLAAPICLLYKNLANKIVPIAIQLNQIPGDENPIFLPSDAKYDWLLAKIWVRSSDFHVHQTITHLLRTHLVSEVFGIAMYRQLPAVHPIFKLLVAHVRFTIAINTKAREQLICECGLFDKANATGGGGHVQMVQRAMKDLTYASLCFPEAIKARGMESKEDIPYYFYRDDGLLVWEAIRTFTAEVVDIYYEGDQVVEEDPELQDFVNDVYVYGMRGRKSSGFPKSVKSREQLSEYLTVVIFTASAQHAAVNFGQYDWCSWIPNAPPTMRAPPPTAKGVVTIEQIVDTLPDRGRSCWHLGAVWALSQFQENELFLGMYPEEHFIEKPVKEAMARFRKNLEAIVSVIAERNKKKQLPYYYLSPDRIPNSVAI

[8] = biological target: TRPV1 (Homo sapiens, UniProt Q8NER1); assay: TRPV1 functional agonist assay, Cerep (intracellular Ca2+); assay type: cell-based; conditions: TRPV1 (agonist), 150 µM
[9] = biological target: T4, TRPM8 (Homo sapiens, UniProt Q7Z2W7); assay: TRPM8 functional antagonist assay, Cerep (icilin 100 nM); assay type: cell-based
T4 construct: Cerep, SA (fee-for-service assay) printed G018533 (citation number 33 glued on)

[10] = n = 2, read-out: % Inhibition of control values, Mean
[11] = read-out: % Inhibition of control values, 1st measurement
[12] = read-out: % Inhibition of control values, 2nd measurement
[13] = read-out: % of control values, 1st measurement
[14] = read-out: % of control values, 2nd measurement

Chain of EP4 (P35408 whole entry): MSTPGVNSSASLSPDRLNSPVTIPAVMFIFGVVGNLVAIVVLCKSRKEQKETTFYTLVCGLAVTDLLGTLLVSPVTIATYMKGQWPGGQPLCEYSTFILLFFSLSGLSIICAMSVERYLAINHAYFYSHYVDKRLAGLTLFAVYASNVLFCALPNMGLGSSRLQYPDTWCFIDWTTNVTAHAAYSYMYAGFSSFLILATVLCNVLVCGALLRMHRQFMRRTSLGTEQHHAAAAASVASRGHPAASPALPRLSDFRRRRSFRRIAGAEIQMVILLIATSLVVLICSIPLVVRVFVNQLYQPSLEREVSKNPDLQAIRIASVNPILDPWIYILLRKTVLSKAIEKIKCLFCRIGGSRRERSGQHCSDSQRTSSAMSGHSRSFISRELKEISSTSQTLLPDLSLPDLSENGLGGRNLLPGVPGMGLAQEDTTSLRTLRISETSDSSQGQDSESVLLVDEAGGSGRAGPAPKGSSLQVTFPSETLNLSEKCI
Chain of EGFR (P00533 25-1210): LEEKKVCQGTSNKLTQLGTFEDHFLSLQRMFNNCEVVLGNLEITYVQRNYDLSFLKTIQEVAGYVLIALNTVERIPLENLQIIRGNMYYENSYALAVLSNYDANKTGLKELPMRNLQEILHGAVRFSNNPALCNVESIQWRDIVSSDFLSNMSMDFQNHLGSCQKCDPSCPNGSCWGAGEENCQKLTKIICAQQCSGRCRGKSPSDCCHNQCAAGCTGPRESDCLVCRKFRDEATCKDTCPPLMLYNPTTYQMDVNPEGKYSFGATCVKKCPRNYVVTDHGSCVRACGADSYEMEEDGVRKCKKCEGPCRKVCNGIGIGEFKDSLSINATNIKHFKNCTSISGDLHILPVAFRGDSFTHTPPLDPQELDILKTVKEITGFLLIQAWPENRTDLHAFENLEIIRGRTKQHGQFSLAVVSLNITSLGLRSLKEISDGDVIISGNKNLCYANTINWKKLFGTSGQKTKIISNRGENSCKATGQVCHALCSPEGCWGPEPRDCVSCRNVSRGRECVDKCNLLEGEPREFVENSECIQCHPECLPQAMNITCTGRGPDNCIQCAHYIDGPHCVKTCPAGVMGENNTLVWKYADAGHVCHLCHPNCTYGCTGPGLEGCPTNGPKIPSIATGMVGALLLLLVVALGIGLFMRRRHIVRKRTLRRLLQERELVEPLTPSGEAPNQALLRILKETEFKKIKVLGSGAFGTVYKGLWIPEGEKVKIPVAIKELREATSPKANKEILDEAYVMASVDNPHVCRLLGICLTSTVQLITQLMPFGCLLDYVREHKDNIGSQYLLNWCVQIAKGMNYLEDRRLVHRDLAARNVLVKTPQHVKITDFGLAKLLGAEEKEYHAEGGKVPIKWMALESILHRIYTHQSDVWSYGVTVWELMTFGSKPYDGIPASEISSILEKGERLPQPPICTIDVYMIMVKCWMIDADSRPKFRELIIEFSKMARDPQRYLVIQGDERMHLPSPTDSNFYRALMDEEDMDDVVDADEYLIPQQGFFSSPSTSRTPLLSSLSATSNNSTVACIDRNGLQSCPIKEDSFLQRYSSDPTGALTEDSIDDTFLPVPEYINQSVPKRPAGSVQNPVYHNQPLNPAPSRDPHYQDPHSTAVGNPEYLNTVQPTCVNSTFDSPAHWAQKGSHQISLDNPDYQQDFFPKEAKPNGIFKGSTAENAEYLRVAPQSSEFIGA
Chain of PLK1 (P53350 whole entry): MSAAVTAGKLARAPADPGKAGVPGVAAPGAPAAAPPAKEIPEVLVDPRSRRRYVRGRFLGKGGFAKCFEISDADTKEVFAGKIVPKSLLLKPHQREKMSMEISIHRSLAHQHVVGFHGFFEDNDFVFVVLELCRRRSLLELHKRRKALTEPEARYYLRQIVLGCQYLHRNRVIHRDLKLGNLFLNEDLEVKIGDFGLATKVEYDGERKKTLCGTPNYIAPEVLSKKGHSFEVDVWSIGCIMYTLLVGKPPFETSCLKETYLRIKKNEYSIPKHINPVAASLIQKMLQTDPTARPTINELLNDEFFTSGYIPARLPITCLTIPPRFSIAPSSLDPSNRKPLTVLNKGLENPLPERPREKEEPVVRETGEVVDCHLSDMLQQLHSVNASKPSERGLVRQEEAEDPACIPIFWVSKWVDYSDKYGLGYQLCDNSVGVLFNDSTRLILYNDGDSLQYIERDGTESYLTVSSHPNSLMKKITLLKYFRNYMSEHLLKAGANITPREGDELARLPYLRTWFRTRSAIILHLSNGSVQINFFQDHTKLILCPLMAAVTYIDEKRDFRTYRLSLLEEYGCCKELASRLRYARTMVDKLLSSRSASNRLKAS
Chain of TRPV1 (Q8NER1 whole entry): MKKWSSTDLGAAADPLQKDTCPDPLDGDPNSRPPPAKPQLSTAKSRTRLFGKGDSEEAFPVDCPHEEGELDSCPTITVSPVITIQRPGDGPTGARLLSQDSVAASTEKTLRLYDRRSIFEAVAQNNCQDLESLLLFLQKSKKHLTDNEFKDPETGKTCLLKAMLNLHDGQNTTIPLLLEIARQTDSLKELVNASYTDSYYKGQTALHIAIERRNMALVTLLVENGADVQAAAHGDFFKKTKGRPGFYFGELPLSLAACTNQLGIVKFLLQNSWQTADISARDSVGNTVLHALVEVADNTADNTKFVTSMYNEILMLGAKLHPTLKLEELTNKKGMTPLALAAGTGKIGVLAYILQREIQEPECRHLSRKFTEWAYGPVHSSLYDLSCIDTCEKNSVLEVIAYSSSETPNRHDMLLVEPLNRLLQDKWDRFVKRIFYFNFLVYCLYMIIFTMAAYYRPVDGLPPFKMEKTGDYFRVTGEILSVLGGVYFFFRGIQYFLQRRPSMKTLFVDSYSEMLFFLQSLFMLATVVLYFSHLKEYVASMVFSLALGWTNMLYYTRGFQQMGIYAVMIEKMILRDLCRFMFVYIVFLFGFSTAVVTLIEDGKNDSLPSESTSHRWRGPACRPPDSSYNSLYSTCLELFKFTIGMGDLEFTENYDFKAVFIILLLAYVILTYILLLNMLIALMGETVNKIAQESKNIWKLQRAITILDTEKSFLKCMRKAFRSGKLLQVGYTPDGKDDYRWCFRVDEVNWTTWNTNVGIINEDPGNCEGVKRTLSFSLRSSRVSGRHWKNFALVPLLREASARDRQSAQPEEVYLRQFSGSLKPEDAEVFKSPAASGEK
Chain of MNK2 (Q9HBH9 whole entry): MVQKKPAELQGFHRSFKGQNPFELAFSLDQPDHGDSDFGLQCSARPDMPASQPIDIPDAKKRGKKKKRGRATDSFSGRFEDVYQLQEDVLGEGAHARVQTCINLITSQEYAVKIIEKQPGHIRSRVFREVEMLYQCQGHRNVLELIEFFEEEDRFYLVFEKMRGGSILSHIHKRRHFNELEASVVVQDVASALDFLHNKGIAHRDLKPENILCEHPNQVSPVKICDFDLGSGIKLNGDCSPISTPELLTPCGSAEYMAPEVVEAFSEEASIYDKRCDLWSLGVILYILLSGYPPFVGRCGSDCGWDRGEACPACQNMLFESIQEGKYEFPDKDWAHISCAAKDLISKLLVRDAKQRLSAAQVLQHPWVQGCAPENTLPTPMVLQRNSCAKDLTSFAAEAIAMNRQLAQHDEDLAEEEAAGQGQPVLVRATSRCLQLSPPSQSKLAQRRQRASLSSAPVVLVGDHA
T4 sequence (Q7Z2W7 whole entry): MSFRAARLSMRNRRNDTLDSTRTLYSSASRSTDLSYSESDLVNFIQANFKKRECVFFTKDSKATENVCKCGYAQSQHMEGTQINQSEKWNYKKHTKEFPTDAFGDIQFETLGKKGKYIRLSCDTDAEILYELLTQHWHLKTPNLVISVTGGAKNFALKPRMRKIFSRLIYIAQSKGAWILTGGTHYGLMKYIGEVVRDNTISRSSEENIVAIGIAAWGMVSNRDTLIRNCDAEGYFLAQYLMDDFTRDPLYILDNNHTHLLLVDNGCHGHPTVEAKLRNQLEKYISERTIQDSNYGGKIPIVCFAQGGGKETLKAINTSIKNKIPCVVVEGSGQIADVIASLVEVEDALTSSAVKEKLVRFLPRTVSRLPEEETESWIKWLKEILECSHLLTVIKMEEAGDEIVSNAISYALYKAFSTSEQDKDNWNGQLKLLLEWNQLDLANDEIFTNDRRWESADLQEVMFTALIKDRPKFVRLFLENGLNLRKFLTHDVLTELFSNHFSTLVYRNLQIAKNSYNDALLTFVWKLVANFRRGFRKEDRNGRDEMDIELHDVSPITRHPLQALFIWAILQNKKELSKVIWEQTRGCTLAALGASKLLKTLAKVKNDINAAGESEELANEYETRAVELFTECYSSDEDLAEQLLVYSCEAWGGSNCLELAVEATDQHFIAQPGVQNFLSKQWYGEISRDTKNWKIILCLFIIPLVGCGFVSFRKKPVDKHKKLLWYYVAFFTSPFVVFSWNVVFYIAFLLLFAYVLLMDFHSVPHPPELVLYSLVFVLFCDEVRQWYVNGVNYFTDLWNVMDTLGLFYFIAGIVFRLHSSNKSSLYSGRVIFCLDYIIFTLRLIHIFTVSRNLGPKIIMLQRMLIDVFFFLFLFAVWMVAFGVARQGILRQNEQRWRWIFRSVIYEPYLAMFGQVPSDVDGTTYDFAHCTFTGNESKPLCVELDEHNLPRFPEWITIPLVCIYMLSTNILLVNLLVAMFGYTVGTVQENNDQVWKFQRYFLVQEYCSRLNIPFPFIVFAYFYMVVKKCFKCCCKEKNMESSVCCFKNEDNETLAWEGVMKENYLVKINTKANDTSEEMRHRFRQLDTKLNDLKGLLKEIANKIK

Compound: CC1(C)CCC2=C(O1)c1ccccc1C(=O)C2=O [β-Lapachone]
- IC50 [1]: > 30 µM
- inhibition at 150 µM ([2]; Flag: Interference, read-out: % Inhibition of control values, 1st measurement): 59.5%
- inhibition at 150 µM ([2]; Flag: Interference, read-out: % Inhibition of control values, 2nd measurement): 59.4%
- inhibition at 150 µM ([2]; n = 2, Flag: Interference, read-out: % Inhibition of control values, Mean): 59.5%
- inhibition at 150 µM [3, 10]: 67.1%
- inhibition at 150 µM [3, 11]: 68.5%
- inhibition at 150 µM [3, 12]: 65.7%
- IC50 [4]: ~100 µM
- remaining activity at 150 µM [4, 13]: 54.6%
- remaining activity at 150 µM [4, 14]: 51.7%
- remaining activity at 150 µM ([4]; read-out: % of control values, Mean): 53.1%
- inhibition at 150 µM [5, 10]: 60%
- inhibition at 150 µM [5, 11]: 61.1%
- inhibition at 150 µM [5, 12]: 58.9%
- inhibition at 150 µM [6, 10]: 80.1%
- inhibition at 150 µM [6, 11]: 78.1%
- inhibition at 150 µM [6, 12]: 82.1%
- inhibition of 5-LO at varying arachidonic acid concentrations ([7]; AA 2.5–40 μM, n = 3): non-competitive inhibition
- IC50 ([7]; IC50 (3 μg mL^–1, PC), competition with phosphatidylcholine 3 μg/mL, n = 3): 100 nM
- IC50 ([7]; IC50 (30 μg mL^–1, PC), competition with phosphatidylcholine 30 μg/mL, n = 3): 1000 nM
- IC50 ([7]; IC50 (with DTT), cell-free, reducing conditions, 1 mM dithiothreitol (DTT), n = 3): 240 nM
- IC50 ([7]; IC50 (without Triton X100), cell-free, plus 1 mM DTT, no Triton X100, n = 3): 120 nM
- IC50 ([7]; cell-free, absence of DTT, n = 3, read-out: IC50 (without DTT)): > 30000 nM
- IC50 ([7]; cell-free, plus 1 mM DTT, 0.01% Triton X100, n = 3, read-out: IC50 (with Triton X100)): 90 nM
- 5-LO activity upon wash-out ([7]; wash-out experiment, 10-fold dilution, plus 1 mM DTT): reinstated
- remaining activity at 150 µM ([8]; n = 2, read-out: % of control values, Mean): -4.6%
- remaining activity at 150 µM [8, 13]: -7.3%
- remaining activity at 150 µM [8, 14]: -1.9%
- IC50 [9]: > 100 µM
